Reference: US11458132B2, “Quinolin-2(1H)-one inhibitors of Late SV40 Factor” (TRUSTEES OF BOSTON UNIVERSITY, priority 2020, dated 2022)

System: colorectal cancer tumor
Experiment: Colorectal cancer tumor size and tumor tissue, FIGS. 22-24
Type: in vivo, mouse
Conditions: treated versus control

## CC(C)COc1cc(N(C)C)ccc1C1CC(=O)Nc2cc3c(cc21)OCO3 (stereo not shown) [FQI-234, 8-(4-(dimethylamino)-2-isobutoxyphenyl)-7,8-dihydro-[1,3]dioxolo[4,5-g]quinolin-6(5H)-one]
  stained tumor tissue, microscope images: more organized, interstitium and differentiated tumor
